Read-outs that look alike come from different tables or passages of the source.
Tests used:
[1] = tested on: Daudi (ATCC CCL-213, B Lymphoblast) cells; test: In-vitro cytotoxicity assay using Daudi cells (alamar blue); format: cell-based
Description: Daudi (ATCC CCL-213, B Lymphoblast) cells were seeded on a 96 well black clear bottom plate (Costar 3603). The cell line was chosen as it is known to express the CD38 receptor. The cells were treated with different concentrations of daratumumab-MMAE conjugation and Darzalex, incubated in CO2 incubator for 2 hours. After incubation the excess or unbound Daratumumab-MMAE was removed, fresh media was added and incubated for 4 days in 5% CO2 at 37° C. At the end of incubation, alamar blue dye (invitrogen, DAL-1100) was added to the cells and incubated for 5 hours in CO2 incubator.

[2] = tested on: Daudi Burkitt lymphoma xenograft; test: Efficacy in Burkitt lymphoma xenograft disease model in SCID mice; format: in vivo; conditions: 5 mg/kg, I.V. route, single administration; dosed at mean tumor volume approximately 20-25 mm3; FIG. 4
Description: In present study, the therapeutic potential of novel Daratumumab-ADC has been evaluated in comparison to Daratumumab antibody only. Specifically to induce Burkitt lymphoma xenograft, Immunodeficient SCID mice were injected with Daudi cells (1 million cells/animal/200 μL volume, In 1:1 ratio of cell suspension & matrigel) in right flank region of animals. […] Here, in this study, Daratumumab-ADC & Daratumumab were compared head to head at a dose level of 5 mg/kg (I.V. route, Single administration).

Row | Substance | in vitro activity (cytotoxicity, viable cells by alamar blue fluorescence) [1] | effect on tumor progression / tumor burden [2] | in vitro activity (cytotoxicity, viable cells by alamar blue fluorescence) ([1]; Daudi cells expressing CD38, 2 hours treatment, unbound removed, 4 days incubation, no effector cells) | relative in vitro activity compared with Darzalex ([1]; Daudi cells, FIG. 3)
1 | Daratumumab: immunoglobulin G1 kappa (IgG1κ) human monoclonal antibody against CD38 antigen [reference compound] | does not show activity without effector functions | able to delay the tumor progression in comparison to placebo control group but not able to regress the tumor burden |  | 
2 | daratumumab-MMAE conjugate: daratumumab as an antibody, mc-vc-PABC as a linker and MMAE as a toxin or drug or payload; average DAR about 4 |  | able to regress the tumor burden | shows good in vitro activity without the requirement of effector cell mediated killing | better than Darzalex

From US20260263617A1, “DARATUMUMAB DRUG CONJUGATES AND PREPARATION THEREOF” (ZYDUS LIFESCIENCES LIMITED, priority 2023, published 2026)
